Measured values reported in a melting point compilation (Tetko et al.).

Settings: a range is the spread between reports
For `Cc1ccc(O)c(C)c1`, the melting point was 22 to 27 °C.
Work on `CC(C)(C)C#N` yielded a melting point of 15 to 17 °C.
`O=C(O)c1cc(Cl)c(O)c(Cl)c1` gave a melting point of 265 to 268 °C.
`Nc1ccc(/C=C/c2ccc([N+](=O)[O-])cc2)c([N+](=O)[O-])c1` showed a melting point of 198 to 202 °C.
`Oc1ccc(Cc2ccc(O)cc2)cc1` showed a melting point of 161 to 162 °C.
With `CCC#N` the melting point was -93 to -92 °C.
`COc1ccc(OC)c(C(C)=O)c1` showed a melting point of 19 to 20 °C.
Work on `O=C1OC(=O)c2c(Cl)c(Cl)c(Cl)c(Cl)c21` yielded a melting point of 254 to 256 °C.
In the case of `COc1ccc(N)c(OC)c1`, the melting point is reported as 33.5 to 35 °C.
`c1ccc2c(c1)Cc1cc3ccccc3cc1-2` gave a melting point of 208 to 212 °C.
`CCc1ccncc1` gave a melting point of -91 to -90.5 °C.
`OC/C=C/c1ccccc1` showed a melting point of 30 to 34 °C.
`CC(Br)CBr` (stereo unspecified) showed a melting point of -55.5 to -55 °C.
Work on `C=C` yielded a melting point of -169 °C.
For `CCCCCCC#N`, the melting point was -64 to -63 °C.
`CCC(CC)(CC)CC` showed a melting point of -33.1 to -33 °C.
`CCCCP(CCCC)CCCC` showed a melting point of -65 to -60 °C.
With `OCc1cccc2ccccc12` the melting point was 61 to 64 °C.
For `c1ccc2ncccc2c1`, the melting point was -15 to -14.8 °C.
Work on `COc1ccc(C(N)=O)cc1` yielded a melting point of 165 to 166 °C.
Work on `C=CCC1CCCC1` yielded a melting point of -111 °C.
With `C=CCCC(=O)O` the melting point was -22.5 to -22 °C.
In the case of `BrCc1ccccc1CBr`, the melting point is reported as 94 to 95 °C.
For `Brc1cccnc1`, the melting point was -27.3 to -27 °C.
`CCc1ccc(C)nc1` showed a melting point of -71 to -70.9 °C.
Work on `O=[N+]([O-])c1cccc2cnccc12` yielded a melting point of 108 to 110 °C.
`BrC(Br)Br` showed a melting point of 8 to 9 °C.
In the case of `Clc1ccc(Br)cc1Cl`, the melting point is reported as 24 to 25 °C.
With `OCCSSCCO` the melting point was 25 to 26 °C.
Work on `CC(=O)c1ccc(C#N)cc1` yielded a melting point of 57 to 59 °C.
For `CC(=O)c1ccc(Cl)cc1`, the melting point was 18 to 20 °C.
With `O=C1c2ccccc2C(=O)N1CCCBr` the melting point was 74 to 75 °C.
For `O=[N+]([O-])c1ccc(O)c(Cl)c1`, the melting point was 106 to 110 °C.
Work on `COC(=O)c1cc(OC)c(OC)c(OC)c1` yielded a melting point of 83 to 85 °C.
Molecule `C=CC(C)CC` (stereo unspecified) has a melting point of -154 to -153 °C.
In the case of `COC(=O)c1ccc(I)cc1`, the melting point is reported as 115 °C.
`Clc1ccc(Cl)nn1` gave a melting point of 67.5 to 68 °C.
`O=[N+]([O-])c1cccs1` showed a melting point of 44 to 46.5 °C.
`Clc1cncc(Cl)n1` showed a melting point of 54 to 56.5 °C.
`COc1ccc(C(=O)O)cc1OC` gave a melting point of 180 to 181 °C.
For `COc1ccc(I)cc1`, the melting point was 50 to 53 °C.
With `C1CC1` the melting point was -128 to -127 °C.
Molecule `O=c1cc(-c2ccccc2)oc2c1ccc1ccccc12` has a melting point of 153 to 158 °C.
`c1ccc(CSc2ccccc2)cc1` showed a melting point of 41 to 43.5 °C.
`CNc1ccccc1C(=O)OC` gave a melting point of 18 to 19 °C.
For `NCCCN1CCN(CCCN)CC1`, the melting point was 14 to 15 °C.
With `O=C(O)C(=O)c1ccccc1` the melting point was 65 to 66 °C.
Molecule `O=[N+]([O-])c1ccc(N=C=S)cc1` has a melting point of 108 to 111 °C.
`CSC(C)C` showed a melting point of -102 °C.
With `CCCCCCOC(C)=O` the melting point was -80.9 to -80 °C.
In the case of `N#CC(Cl)(Cl)Cl`, the melting point is reported as -44 to -42 °C.
For `COCCOC(C)=O`, the melting point was -65.1 to -65 °C.
For `Oc1c(Cl)ccc(Cl)c1Cl`, the melting point was 56 to 58 °C.
`N=C(Nc1ccccc1)Nc1ccccc1` gave a melting point of 149 to 150 °C.
`Brc1cccc2ccccc12` gave a melting point of -1.8 to -1 °C.
`O=C(O)C(F)(F)C(F)(F)C(F)(F)C(F)(F)C(F)(F)C(F)(F)C(F)(F)F` showed a melting point of 54.3 to 55.5 °C.
For `O=Cc1cc([N+](=O)[O-])ccc1O`, the melting point was 125 to 129 °C.
For `NC(=O)CI`, the melting point was 93.5 to 94.5 °C.
`CCCCCCCCCCCCC(=O)O` showed a melting point of 41.5 to 44.5 °C.
With `CC(C)c1ccccc1O` the melting point was 15 to 16 °C.
Work on `ClC1c2ccccc2CCc2ccccc21` yielded a melting point of 106 to 107 °C.
`N#CCc1cccc(Br)c1` showed a melting point of 27 to 28 °C.
For `O=C(c1cccs1)c1cccs1`, the melting point was 89 to 90 °C.
`Cc1ccc(Cl)c(N)c1` showed a melting point of 29.5 to 32 °C.
In the case of `O=C[C@H](O)[C@@H](O)[C@@H](O)[C@H](O)CO`, the melting point is reported as 166 to 167 °C.
With `N#C/C=C/C#N` the melting point was 96.8 to 97 °C.
In the case of `OC1C2CCC(C2)C1O` (stereo unspecified), the melting point is reported as 139 to 141 °C.
`CCNc1ccccc1` showed a melting point of -64 to -63 °C.
With `O=C(C=Cc1cccc([N+](=O)[O-])c1)c1ccccc1` the melting point was 146 °C.
`CN1C(=O)OC(C)(C)C1=O` showed a melting point of 46 to 47 °C.
Molecule `Cc1cc([N+](=O)[O-])ccc1N` has a melting point of 132 to 134 °C.
Molecule `ClC(Cl)=C(Cl)Cl` has a melting point of -22.3 to -22 °C.
`CSc1ccc(C(=O)O)cc1` showed a melting point of 194 to 195 °C.
`O=Cc1ccc(O)c([N+](=O)[O-])c1` gave a melting point of 141 to 142 °C.
Molecule `CCCCCCCC1CCCCC1` has a melting point of -31 to -30 °C.
`CO` showed a melting point of -98 to -97.5 °C.
`Cc1cncnc1` showed a melting point of 30 to 32 °C.
`CC(CO)(CO)[N+](=O)[O-]` gave a melting point of 150 °C.
Work on `C=CCCCCCCCCCCCCCCCCCC` yielded a melting point of 28.5 to 29 °C.
In the case of `CC1(C)NC(=O)NC1=O`, the melting point is reported as 176 to 178 °C.
`Oc1cccc(Cl)c1Cl` showed a melting point of 56 to 59 °C.
`O=C(O)Cc1cccc(F)c1` showed a melting point of 43 to 46 °C.
In the case of `Clc1cccc(Br)c1Cl`, the melting point is reported as 58 to 60 °C.
With `CCCCCCCC(=O)OCC` the melting point was -47 to -43.1 °C.
For `CCCCCCCCO`, the melting point was -16 to -15 °C.
`O=C(c1ccccc1)c1ccccn1` showed a melting point of 42 to 43 °C.
